For data set [1], the system named is subjects with hypertriglyceridemia and metabolic syndrome. Briefly: Phase III placebo-controlled study of 130 mg fenofibrate, with and without food: prevalence of metabolic syndrome. The following applies: for prevalence of metabolic syndrome at end of treatment: 130 mg daily.
Method: Objectives: A primary outcome variable was the difference in the prevalence of metabolic syndrome between the group treated with 130 mg of fenofibrate (“the treatment group”) versus the placebo group (“the placebo”). A related outcome variable included the effect of food on fenofibrate efficacy.
Methodology: This was a multicenter, prospective, double-blind, double-dummy, randomized, placebo-controlled, parallel group study of a micronized formulation of fenofibrate at a single daily dose of 130 mg. Subjects took prescription or over-the-counter lipid lowering medications or dietary supplements known to alter lipid levels or other aspects of the lipid profile until week 6 (visit 1). At week 6, subjects were instructed to follow the therapeutic lifestyle changes diet, in accordance with the Food and Drug Administration guidelines for clinical evaluations of lipid-altering agents.
Also at week 6, qualifying subjects were stratified by triglyceride level and randomized in a double-blind fashion to one of three groups, the first two of which constituted the treatment group and the third group constituted the placebo: A) 1 fenofibrate capsule (130 mg) with food and 1 placebo capsule without food; B) 1 fenofibrate capsule (130 mg) without food (three hours after a meal) and 1 placebo capsule with food; and C) placebo, 1 placebo capsule with food and 1 placebo capsule without food. […] One capsule was taken with the subjects' evening meal and a second capsule was taken three hours post-meal. The first dosing occurred on the first evening after visit 4. A lipid profile was measured at every visit, and other measurements were taken regularly throughout the study.
Treatment duration was eight weeks.
For data set [2] the following is noted: cited from earlier work.
The subject of the next data set is high-risk patients. To be noted: particularly those with diabetes and insulin resistance; cited from earlier work.

The text below walks through data of US8026281B2, “Treating metabolic syndrome with fenofibrate” (Lupin Atlantis Holdings, S.A., priority 2004, dated 2011).

In the case of `CC(C)OC(=O)C(C)(C)Oc1ccc(C(=O)c2ccc(Cl)cc2)cc1` [fenofibrate, 2-[4-(4-chlorobenzoyl)phenoxy]-2-methyl-propanoic acid, 1-methylethyl ester], the “safety and efficacy conclusion” value in data set [1] (fenofibrate formulation 130 mg, eight weeks) is “safe and efficacious”. The food effect entry in data set [1] (fenofibrate formulation 130 mg, with food versus without food) is “does not exhibit a food effect”. For the same molecule, the “prevalence of metabolic syndrome at end of treatment” value in data set [1] (fenofibrate with food group, eight weeks, reduced from 96.3% prevalence) turned out to be 74.1%; in data set [1] (fenofibrate without food group (three hours after a meal), eight weeks, reduced from 97.6% prevalence), 66.7%; in data set [1] (whole treatment group, eight weeks, reduced from 96.9% prevalence, placebo 98.0% to 86.0%) it was 70.8%. For the same molecule, in data set [1] (treatment group (fenofibrate 130 mg once daily, with or without food), eight-week treatment, placebo 12%, chi-square p-value=0.0416), the “decrease in number of subjects having three or more metabolic syndrome criteria” value is “more than 25%”.
Regarding `CC(C)(Oc1ccc(C(=O)c2ccc(Cl)cc2)cc1)C(=O)O` [fenofibric acid], the “mean concentration in the plasma” value in data set [2] (dose of 300 mg per day) was ~15000 ng/mL. Moreover, the “time of maximum concentration in the plasma after ingestion of the medicinal product” value in data set [2] (on average) is reported as “five”. Moreover, in data set [2] (plasma), the “half-life for elimination from the plasma” value was ~20 h.
As for `Cc1ccc(C)c(OCCCC(C)(C)C(=O)O)c1` [gemfibrozil], the “risk for major cardiovascular events” value in the data set with high-risk patients was “reduced the risk for major cardiovascular events”.
